Assay [1] deals with methicillin-sensitive Staphylococcus aureus. The experiment in a line: MIC by broth micro-dilution (CLSI), methicillin-sensitive S. aureus. Format: cell-based. Particulars: Staphylococcus aureus, ATCC 29213 / MSSA, MSSA S. aureus ATCC29213; read-out: MIC. (In broth dilution the organism is exposed to a series of concentrations in liquid medium.)
In assay [2] the test system is carbapenem sensitive Pseudomonas aeruginosa. Description: MIC by broth micro-dilution (CLSI), carbapenem sensitive P. aeruginosa. Format: cell-based. Conditions: Pseudomonas aeruginosa, ATCC27853, Meropenem susceptible P. aeruginosa ATCC27853; read-out: MIC.
For assay [3], the system named is carbapenemase producing K. pneumoniae. Description: MIC by broth micro-dilution (CLSI), carbapenemase producing K. pneumoniae. The assay is classed as cell-based, Klebsiella pneumoniae. Conditions: Klebsiella pneumoniae, ATCCBAA1705, KPC-2 K. pneumoniae ATCC BAA-1705; read-out: MIC.
The test system of assay [4] is carbapenem sensitive Escherichia coli. Description: MIC by broth micro-dilution (CLSI), carbapenem sensitive E. coli. Particulars: Escherichia coli, ATCC25922, ESBL −ve E. coli ATCC25922; read-out: MIC. Format: cell-based.
The test system of assay [5] is extended spectrum β lactamase (ESBL) SHV18 producing Klebsiella pneumoniae. The experiment in a line: MIC by broth micro-dilution (CLSI), ESBL SHV18 producing K. pneumoniae. Format: cell-based. Particulars: Klebsiella pneumoniae, ATCC700603, 22 h, ESBL +ve (SHV-18) K. pneumoniae ATCC700603; read-out: MIC.

≈ marks a conversion by molar mass, not a printed value.

By MIC is commonly meant the least concentration at which growth counts as inhibited. For `C[C@@H](NC(=O)C(F)F)[C@H]1C(=O)N2C(C(=O)O)=C(S[C@@H]3CN[C@H](C(=O)N4CCC(N)CC4)C3)[C@H](C)[C@H]12` [Example 132], the MIC in assay [1] stood at 2 µg/mL (≈ 3.88 µM); in assay [2], 4 µg/mL (≈ 7.76 µM); in assay [3], 4 µg/mL (≈ 7.76 µM); in assay [4], 1 µg/mL (≈ 1.94 µM); in assay [5] it was 4 µg/mL (≈ 7.76 µM).
`C[C@@H](NC(=O)C(F)F)[C@H]1C(=O)N2C(C(=O)O)=C(S[C@@H]3CN[C@H](C(=O)N4CC[C@H](NS(=O)(=O)CCN)C4)C3)[C@H](C)[C@H]12` [Example 133]: the minimum inhibitory concentration (MIC) was 4 µg/mL (≈ 6.57 µM) in assay [1]; 8 µg/mL (≈ 13.1 µM) in assay [2]; 8 µg/mL (≈ 13.1 µM) in assay [3]; 1 µg/mL (≈ 1.64 µM) in assay [4]; 4 µg/mL (≈ 6.57 µM) in assay [5].
On to `C[C@@H](NC(=O)C(F)F)[C@H]1C(=O)N2C(C(=O)O)=C(S[C@@H]3CN[C@H](C(=O)N(C)[C@H]4CCNC4)C3)[C@H](C)[C@H]12` [Example 134], for which the minimum inhibitory concentration (MIC) in assay [1] turned out to be 2 µg/mL (≈ 3.88 µM); in assay [2], 16 µg/mL (≈ 31 µM); in assay [3], 4 µg/mL (≈ 7.76 µM); in assay [4], 1 µg/mL (≈ 1.94 µM); in assay [5], 4 µg/mL (≈ 7.76 µM).
With `C[C@@H]1CN(C(=O)[C@@H]2C[C@H](SC3=C(C(=O)O)N4C(=O)[C@H]([C@@H](C)NC(=O)C(F)F)[C@H]4[C@H]3C)CN2)CCN1` [Example 135], the MIC in assay [1] is 2 µg/mL (≈ 3.88 µM); in assay [2], 8 µg/mL (≈ 15.5 µM); in assay [3] it was 4 µg/mL (≈ 7.76 µM); in assay [4], 1 µg/mL (≈ 1.94 µM); in assay [5], 4 µg/mL (≈ 7.76 µM).
In the case of `C[C@@H](NS(=O)(=O)CCN)[C@H]1C(=O)N2C(C(=O)O)=C(S[C@@H]3CN[C@H](C(=O)N(C)C)C3)[C@H](C)[C@H]12` [Example 136], the minimum inhibitory concentration (MIC) in assay [1] was more than 128 µg/mL; in assay [2] it was 32 µg/mL (≈ 65.4 µM); in assay [3], 16 µg/mL (≈ 32.7 µM); in assay [4] it was 4 µg/mL (≈ 8.17 µM); in assay [5], 16 µg/mL (≈ 32.7 µM).
In the case of `COc1coc(CNC(=O)[C@@H]2C[C@H](SC3=C(C(=O)O)N4C(=O)[C@H]([C@@H](C)NC(=O)C(F)F)[C@H]4[C@H]3C)CN2)cc1=O` [Example 137], the MIC in assay [1] is 4 µg/mL (≈ 7.01 µM); in assay [2], more than 128 µg/mL; in assay [3], 8 µg/mL (≈ 14 µM); in assay [4] it was 1 µg/mL (≈ 1.75 µM); in assay [5], 8 µg/mL (≈ 14 µM).
As to `C[C@@H](NC(=O)C(F)(F)CN)[C@H]1C(=O)N2C(C(=O)O)=C(S[C@@H]3CN[C@H](C(=O)N(C)C)C3)[C@H](C)[C@H]12` [Example 138], the MIC was 32 µg/mL (≈ 65.4 µM) in assay [1]; more than 128 µg/mL in assay [2]; 64 µg/mL (≈ 131 µM) in assay [3]; 4 µg/mL (≈ 8.17 µM) in assay [4]; 32 µg/mL (≈ 65.4 µM) in assay [5].
With `CCCNCC(=O)N[C@H](C)[C@H]1C(=O)N2C(C(=O)O)=C(S[C@@H]3CN[C@H](C(=O)N(C)C)C3)[C@H](C)C12` (stereo partly shown) [Example 139], the MIC is 32 µg/mL (≈ 66.4 µM) in assay [1]; 32 µg/mL (≈ 66.4 µM) in assay [2]; 4 µg/mL (≈ 8.31 µM) in assay [3]; 1 µg/mL (≈ 2.08 µM) in assay [4]; 4 µg/mL (≈ 8.31 µM) in assay [5].
As to `C[C@H]1C(S[C@@H]2CN[C@H](C(=O)N(CCO)CCO)C2)=C(C(=O)O)N2C(=O)[C@H]([C@@H](C)NC(=O)C(F)F)C12` (stereo partly shown) [Example 140], the minimal inhibitory concentration (MIC) is 2 µg/mL (≈ 3.84 µM) in assay [1]; 32 µg/mL (≈ 61.5 µM) in assay [2]; 2 µg/mL (≈ 3.84 µM) in assay [3]; 0.5 µg/mL (≈ 0.961 µM) in assay [4]; 1 µg/mL (≈ 1.92 µM) in assay [5].
On to `CNC(=O)[C@@H]1C[C@H](N)CN1C(=O)[C@@H]1C[C@H](SC2=C(C(=O)O)N3C(=O)[C@H]([C@@H](C)NC(=O)C(F)F)[C@H]3[C@H]2C)CN1` [Example 141], for which the MIC in assay [1] was 4 to 8 µg/mL (≈ 7.16 to 14.3 µM); in assay [2], 64 µg/mL (≈ 115 µM); in assay [3] it was 4 to 8 µg/mL (≈ 7.16 to 14.3 µM); in assay [4], 1 µg/mL (≈ 1.79 µM); in assay [5] it was 4 to 8 µg/mL (≈ 7.16 to 14.3 µM).
In the case of `C[C@@H](NC(=O)C(F)F)[C@H]1C(=O)N2C(C(=O)O)=C(S[C@@H]3CN[C@H](C(=O)N4C[C@@H](N)C[C@H]4C(=O)N(C)C)C3)[C@H](C)[C@H]12` [Example 142], the minimum inhibitory concentration (MIC) is 4 to 8 µg/mL (≈ 6.99 to 14 µM) in assay [1]; 16 to 32 µg/mL (≈ 27.9 to 55.9 µM) in assay [2]; 8 µg/mL (≈ 14 µM) in assay [3]; 1 µg/mL (≈ 1.75 µM) in assay [4]; 8 µg/mL (≈ 14 µM) in assay [5].
